Laboratory results taken from patent US20240158446A1, “CYCLIC COMPOUND HAVING SELECTIVE INHIBITORY ACTION ON KRAS OVER HRAS AND NRAS” (CHUGAI SEIYAKU KABUSHIKI KAISHA, priority 2021, published 2024).
*1 amine or outer side, *2 acyl side, *3 side chain or, on linkers, in order; H or OH if unused. Where a SMILES comes first, the peptide text is derived from it. Bridges are numbered along the chain shown (N, C = ends). [ ]: non-standard residue; d: D form. The star is where a group is joined. hPhe(3,5-F2-4-CF3) = N[C@@H](CCc1cc(F)c(C(F)(F)F)c(F)c1)C(=O)O; X49 = CCCN([C@@H](Cc1ccc(OCC=[*:3])cc1)C(=O)[*:2])[*:1]; NPrPhe(4-CF3) = CCCN[C@@H](Cc1ccc(C(F)(F)F)cc1)C(=O)O; X14 = CN([C@@H](CCCCC=[*:3])C(=O)[*:2])[*:1]; dαMeAlg = C[C@](CC=[*:3])(N[*:1])C(=O)[*:2]; X48 = CN([C@@H](CCC=[*:3])C(=O)[*:2])[*:1]; NMeGly(cPent) = CN[C@H](C(=O)O)C1CCCC1; Hyp = O=C(O)[C@@H]1C[C@@H](O)CN1; NMeD = CN[C@@H](CC(=O)O)C(=O)O; Morpholide = C1CN(*)CCO1; Ac5c = NC1(C(=O)O)CCCC1; Sar = CNCC(=O)O

How the values were obtained:
[1] = molecular target: GDP-bound NRAS wild-type protein (Homo sapiens, UniProt P01111); assay: Binding to NRAS by surface plasmon resonance (SPR), Single Cycle Kinetics; settings: SPR, GDP-bound NRAS wild-type protein vs GDP-bound KRAS wild-type protein
[2] = molecular target: GDP-bound HRAS wild-type protein (Homo sapiens, UniProt P01112); assay: Binding to HRAS by surface plasmon resonance (SPR), Single Cycle Kinetics; settings: SPR, GDP-bound HRAS wild-type protein vs GDP-bound KRAS wild-type protein
[3] = system: human lung cancer strain NCI-H441;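 also: cell proliferation inhibition after four days measured by CellTiter-Glo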

GDP-bound HRAS wild-type protein, sequence (P01112 whole entry): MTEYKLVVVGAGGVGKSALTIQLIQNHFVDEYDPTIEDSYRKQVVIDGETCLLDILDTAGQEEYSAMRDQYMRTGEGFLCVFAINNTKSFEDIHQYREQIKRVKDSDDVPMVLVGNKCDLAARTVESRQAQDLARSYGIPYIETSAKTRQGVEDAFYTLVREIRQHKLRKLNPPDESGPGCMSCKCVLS
GDP-bound NRAS wild-type protein, sequence (P01111 whole entry): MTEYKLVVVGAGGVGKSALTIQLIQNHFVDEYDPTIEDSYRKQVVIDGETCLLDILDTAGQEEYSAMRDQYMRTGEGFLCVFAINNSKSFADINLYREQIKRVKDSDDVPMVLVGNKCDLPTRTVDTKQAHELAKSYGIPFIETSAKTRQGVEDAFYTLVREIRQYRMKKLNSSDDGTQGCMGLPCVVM

Row | IC50 [3] [nM] | Compound | NRAS/KRAS (ratio of KD value for NRAS to KD value for KRAS) [1] | HRAS/KRAS (ratio of KD value for HRAS to KD value for KRAS) [2]
1 | 4.9 | CCCN1C(=O)CN(C)C(=O)CN(C)C(=O)[C@H]([C@@H](C)CC)NC(=O)[C@@H]2CCC=CCOc3ccc(cc3)C[C@H]1C(=O)N(C)CC(=O)N[C@@H](CCc1cc(F)c(C(F)(F)F)c(F)c1)C(=O)N1C[C@H](OCC)C[C@H]1C(=O)NC1(CCCC1)C(=O)N(C)[C@@H](C1CCCC1)C(=O)N(C)[C@H](C(=O)N(C)C)CC(=O)N2C [PP0900] ([X48]I[Sar][Sar][X49][Sar][hPhe(3,5-F2-4-CF3)][Hyp](Et)[Ac5c][NMeGly(cPent)][NMeD]-NMe2; staple 1-5; lactam N-11) | C (A compound having a KD ratio of 0.1 or more and less than 3 is denoted as C) | C (A compound having a KD ratio of 0.1 or more and less than 3 is denoted as C)
2 | 72.6 | CCCN1C(=O)CN(C)C(=O)CN(C)C(=O)[C@H]([C@@H](C)CC)NC(=O)[C@@H]2CCCCC=CC[C@@](C)(NC(=O)[C@@H]3C[C@@H](OCC)CN3C(=O)[C@H](CCc3cc(F)c(C(F)(F)F)c(F)c3)NC(=O)CN(C)C(=O)[C@@H]1Cc1ccc(C(F)(F)F)cc1)C(=O)N(C)[C@@H](C1CCCC1)C(=O)N(C)[C@H](C(=O)N1CCOCC1)CC(=O)N2C [PP0902] ([X14]I[Sar][Sar][NPrPhe(4-CF3)][Sar][hPhe(3,5-F2-4-CF3)][Hyp](Et)[dαMeAlg][NMeGly(cPent)][NMeD]-Morpholide; staple 1-9; lactam N-11) | A (a compound having 10 or more and less than 20 is denoted as A) | B (a compound having 3 or more and less than 10 is denoted as B)
3 | 24.8 | CCO[C@@H]1C[C@H]2C(=O)NC3(CCC3)C(=O)N(C)[C@@H](C3CCCC3)C(=O)N(C)[C@H](C(=O)N(C)C)CC(=O)N(C)[C@@H](CC)C(=O)N[C@@H]([C@@H](C)CC)C(=O)N(C)CC(=O)N(C)[C@H]3CCCCCN(C3=O)[C@@H](Cc3ccc(F)c(F)c3)C(=O)N(C)CC(=O)N[C@@H](CCc3cc(F)c(C(F)(F)F)c(F)c3)C(=O)N2C1 [PP0907] | B (a compound having 3 or more and less than 10 is denoted as B) | B (a compound having 3 or more and less than 10 is denoted as B)
4 | 38.5 | CCO[C@@H]1C[C@H]2C(=O)NC3(CCC3)C(=O)N(C)[C@@H](C3CCCC3)C(=O)N(C)[C@H](C(=O)N(C)C)CC(=O)N(C)[C@@H](CC)C(=O)N[C@@H]([C@@H](C)CC)C(=O)N(C)CC(=O)N(C)[C@H]3CCCCCN(C3=O)[C@@H](Cc3ccc(F)cc3Cl)C(=O)N(C)CC(=O)N[C@@H](CCc3cc(F)c(C(F)(F)F)c(F)c3)C(=O)N2C1 [PP0908] | B (a compound having 3 or more and less than 10 is denoted as B) | B (a compound having 3 or more and less than 10 is denoted as B)
5 | 40.5 | CCO[C@@H]1C[C@H]2C(=O)NC3(CCC3)C(=O)N(C)[C@@H](C3CCCC3)C(=O)N(C)[C@H](C(=O)N(C)C)CC(=O)N(C)[C@@H](CC)C(=O)N[C@@H]([C@@H](C)CC)C(=O)N(C)CC(=O)N(C)[C@H]3CCCCCN(C3=O)[C@@H](Cc3ccc(F)c(C)c3)C(=O)N(C)CC(=O)N[C@@H](CCc3cc(F)c(C(F)(F)F)c(F)c3)C(=O)N2C1 [PP0912] | B (a compound having 3 or more and less than 10 is denoted as B) | B (a compound having 3 or more and less than 10 is denoted as B)
6 | 206 | CCO[C@@H]1C[C@H]2C(=O)NC3(CCC3)C(=O)N(C)[C@@H](C3CCCC3)C(=O)N(C)[C@H](C(=O)N(C)C)CC(=O)N(C)[C@@H](CC)C(=O)N[C@@H]([C@@H](C)CC)C(=O)N(C)CC(=O)N(C)[C@H]3CCCCCN(C3=O)[C@@H](Cc3nccs3)C(=O)N(C)CC(=O)N[C@@H](CCc3cc(F)c(C(F)(F)F)c(F)c3)C(=O)N2C1 [PP0913] | B (a compound having 3 or more and less than 10 is denoted as B) | B (a compound having 3 or more and less than 10 is denoted as B)
7 | 25.2 | CCO[C@@H]1C[C@H]2C(=O)NC3(CCC3)C(=O)N(C)[C@@H](C3CCCC3)C(=O)N(C)[C@H](C(=O)N3CCOCC3)CC(=O)N(C)[C@@H](CC(C)C)C(=O)N[C@@H]([C@@H](C)CC)C(=O)N(C)CC(=O)N(C)[C@H]3CCCCCN(C3=O)[C@@H](Cc3ccc(F)c(F)c3)C(=O)N(C)CC(=O)N[C@@H](CCc3cc(F)c(C(F)(F)F)c(F)c3)C(=O)N2C1 [PP0917] | B (a compound having 3 or more and less than 10 is denoted as B) | B (a compound having 3 or more and less than 10 is denoted as B)
8 | 445 | CCO[C@@H]1C[C@H]2C(=O)NC3(CCC3)C(=O)N(C)[C@@H](C3CCCC3)C(=O)N(C)[C@H](C(=O)N3CCOCC3)CC(=O)N(C)[C@@H](CC(C)C)C(=O)N[C@@H]([C@@H](C)CC)C(=O)N(C)CC(=O)N(C)[C@H]3CCCCCN(C3=O)[C@@H](Cc3nccs3)C(=O)N(C)CC(=O)N[C@@H](CCc3cc(F)c(C(F)(F)F)c(F)c3)C(=O)N2C1 [PP0923] | B (a compound having 3 or more and less than 10 is denoted as B) | B (a compound having 3 or more and less than 10 is denoted as B)
9 | 91 | CCCN1C(=O)CN(C)C(=O)CN(C)C(=O)[C@H]([C@@H](C)CC)NC(=O)[C@@H]2CCCCCCC[C@@H](NC(=O)[C@@H]3C[C@@H](OCC)CN3C(=O)[C@H](CCc3cc(F)c(C(F)(F)F)c(F)c3)NC(=O)CN(C)C(=O)[C@@H]1Cc1ccc(C(F)(F)F)cc1)C(=O)N(C)[C@@H](C1CCCC1)C(=O)N(C)[C@H](C(=O)N(C)C)CC(=O)N2C [PP0925] | A (a compound having 10 or more and less than 20 is denoted as A) | B (a compound having 3 or more and less than 10 is denoted as B)
10 | 63.9 | CCO[C@@H]1C[C@H]2C(=O)NC3(CCC3)C(=O)N(C)[C@@H](C3CCCC3)C(=O)N(C)[C@H](C(=O)N(C)C)CC(=O)N(C)[C@@H](Cc3ccccc3C)C(=O)N[C@@H]([C@@H](C)CC)C(=O)N(C)CC(=O)N(C)[C@H]3CCCCCN(C3=O)[C@@H](Cc3ccc(C(F)(F)F)cc3)C(=O)N(C)CC(=O)N[C@@H](CCc3cc(F)c(C(F)(F)F)c(F)c3)C(=O)N2C1 [PP0941] | B (a compound having 3 or more and less than 10 is denoted as B) | B (a compound having 3 or more and less than 10 is denoted as B)
11 | 438 | CC[C@H](C)[C@@H]1NC(=O)[C@H](CC(C)C)N(C)C(=O)C[C@@H](C(=O)N2CCOCC2)N(CC)C(=O)[C@H](C2CCCC2)N(C)C(=O)C2(CCC2)NC(=O)[C@@H]2CC(F)(F)CN2C(=O)[C@H](CCc2cc(F)c(C(F)(F)F)c(F)c2)NC(=O)CN(C)C(=O)[C@H](Cc2ccc(C(F)(F)F)cc2)N2CCCCC[C@@H](C2=O)N(C)C(=O)CN(C)C1=O [PP0954] | A (a compound having 10 or more and less than 20 is denoted as A) | A (a compound having 10 or more and less than 20 is denoted as A)
12 | 1040 | CCO[C@@H]1C[C@H]2C(=O)NC(C)(C)C(=O)N(C)[C@@H](C3CCCC3)C(=O)N(CC)[C@H](C(=O)N3CCOCC3)CC(=O)N(C)[C@@H](CC(C)C)C(=O)N[C@@H]([C@@H](C)CC)C(=O)N(C)CC(=O)N(C)[C@H]3CCCCCN(C3=O)[C@@H](Cc3ccc(C(F)(F)F)cc3)C(=O)N(C)CC(=O)N[C@@H](CCc3cc(F)c(C(F)(F)F)c(F)c3)C(=O)N2C1 [PP0958] | B (a compound having 3 or more and less than 10 is denoted as B) | B (a compound having 3 or more and less than 10 is denoted as B)
13 | 156 | CC[C@H](C)[C@@H]1NC(=O)[C@H](CC)N(C)C(=O)C[C@@H](C(=O)N2CCOCC2)N(C)C(=O)[C@H](C2CCCC2)N(C)C(=O)C2(CCCC2)NC(=O)[C@@H]2CCCN2C(=O)[C@H](CCc2ccc(C(F)(F)F)c(Cl)c2)NC(=O)CN(C)C(=O)[C@H](Cc2ccc(F)cc2)N2CCCCC[C@@H](C2=O)N(C)C(=O)CN(C)C1=O [PP0959] | B (a compound having 3 or more and less than 10 is denoted as B) | B (a compound having 3 or more and less than 10 is denoted as B)
14 | 53.6 | CC[C@H](C)[C@@H]1NC(=O)[C@H](Cc2ccccc2)N(C)C(=O)C[C@@H](C(=O)N2CCOCC2)N(C)C(=O)[C@H](C2CCCC2)N(C)C(=O)C2(CCCC2)NC(=O)[C@@H]2CCCN2C(=O)[C@H](CCc2ccc(C(F)(F)F)c(Cl)c2)NC(=O)CN(C)C(=O)[C@H](Cc2ccc(F)cc2)N2CCCCC[C@@H](C2=O)N(C)C(=O)CN(C)C1=O [PP0961] | B (a compound having 3 or more and less than 10 is denoted as B) | B (a compound having 3 or more and less than 10 is denoted as B)
15 | 83.9 | CC[C@H](C)[C@@H]1NC(=O)[C@H](Cc2cccc(F)c2)N(C)C(=O)C[C@@H](C(=O)N2CCOCC2)N(C)C(=O)[C@H](C2CCCC2)N(C)C(=O)C2(CCCC2)NC(=O)[C@@H]2CCCN2C(=O)[C@H](CCc2ccc(C(F)(F)F)c(Cl)c2)NC(=O)CN(C)C(=O)[C@H](Cc2ccc(F)cc2)N2CCCCC[C@@H](C2=O)N(C)C(=O)CN(C)C1=O [PP0962] | B (a compound having 3 or more and less than 10 is denoted as B) | B (a compound having 3 or more and less than 10 is denoted as B)
